Experimental data published in US20260365699A1, “Compound Production Method” (The University of Tokyo, priority 2022, published 2026).
*1 amine or outer side, *2 acyl side, *3 side chain or, on linkers, in order; H or OH if unused. Where a SMILES comes first, the peptide text is derived from it. Bridges are numbered along the chain shown (N, C = ends). [ ]: non-standard residue; d: D form. The star is where a group is joined. X2 = C=C(N[*:2])c1nc(-c2nc(-c3nc(C(=O)NCCC(=O)NCCOCCOCCCCCCCl)cs3)ccc2C(=O)[*:1])cs1; X1 = C=C(N[*:2])c1nc(-c2nc(-c3nc(C(=O)OC)cs3)ccc2C(=O)[*:1])cs1; Nle = CCCC[C@H](N)C(=O)O; Dhb = C/C=C(\N)C(=O)O; Dha = C=C(N)C(=O)O; Cam = NC(=O)C*

How the values were obtained:
[1] = system: NF-kB signaling pathway in THP-1 cells; assay: Inhibition of NFkB reporter gene activity in THP1-XBlue stable cell line; format: cell-based, human
Text: (§1) FIG. 11(a) illustrates TL12 which is a lactazole-like binder of TLR10, retrosynthesis thereof, and amino acid building blocks used. FIG. 11(b) illustrates a binding affinity (KD value) to IRAK4 and an inhibition (IC50) by the synthesized thiopeptide. The half-life (τ1/2) in the human serum and the inhibition (IC50) of the NF-kB signaling pathway in THP-1 cells are also shown. These values were obtained by non-linear regression of the experimental data.: The shaded C in IR4 is hGln (which is a product of IAA alkylation of Cys, but is replaced by homoglutamine); the shaded M in IR15 is Nle (in which Met is replaced by Nle); and the shaded T in IR15 represents a Dhb residue. […] FIG. 11(c) illustrates the binding affinity (KD value) to TLR10 and the half-life (τ1/2) in the human serum.: The shaded C in TL1, TL8, and TL16 is hGln (a product of IAA alkylation of Cys, but is replaced by homoglutamine); the shaded M in TL8, TL11, TL12, TL13, and TL18 is Nle (in which Met is replaced by Nle); the shaded S in 8S of TL11 and TL12 represents a Dha residue; and the shaded S in 9S of TL12 represents an oxazole. […] FIG. 11(d) illustrates the results of a CAPA assay of IR1, IR15, and TP8. The assay was carried out in HEK293T cells.
(§2) Finally, the cell activity of the thiopeptide against IRAK4, which is an intracellular target protein localized in the cytoplasm and the cell nucleus, was examined. […]

HEK293T cells = assay: Chloroalkane penetration assay (CAPA) in HEK293T cells; format: cell-based, human; settings: compared with Tat
Text: as §1, §2

TNIK mRNA = TNIK mRNA level in HCT116 cells (RT-qPCR); format: cell-based, human
Description: (§3) The sub-confluent HCT116 cells were treated with the indicated compounds for 24 hours and the cellular levels of TNIK, TNIK pSer764 (autophosphorylation product), c-Myc, and Axin2 were analyzed by an immunoblotting method (FIG. 7(b)) and RT-qPCR (FIG. 7(c)).

TNIK [2] = assay: TNIK protein level in HCT116 cells (immunoblotting); format: cell-based, human
Description: as §3

TNIK pSer764 = assay: Immunoblotting of TNIK pSer764 (TNIK autophosphorylation) in HCT116 cells; format: cell-based, human; settings: 20 μM of TP15, 24 hours, immunoblotting
Description: as §3
Nat. Commun. 2016, 7, 12586).

HEK293H cells = assay: Chloroalkane penetration assay (CAPA) in HEK293H cells; format: cell-based, human; settings: chloroalkane-labeled derivatives
Description: as §3
Next, it was confirmed whether or not the obtained compound could also access an intracellular target protein (TNIK is localized in the cytoplasm and the cell nucleus) in a human cell model. First, a chloroalkane penetration assay (CAPA) was performed on 4 types (TP1-ct, TP8-ct, TP14-ct, and TP15-ct) out of the 6 types of chloroalkane-labeled thiopeptide derivatives shown in FIG. 5 in order to measure an uptake degree into the cytoplasm (Peraro, L.; Deprey, K. L.; Moser, M. K.; Zou, Z.; Ball, H. L.; Levine, B.; and Kritzer, J. A. Cell Penetration Profiling Using the Chloroalkane Penetration Assay. J. Am. Chem. Soc. 2018, 140, 11360-11369).

TNIK [3] = target: TNIK (Homo sapiens, UniProt Q9UKE5); assay: Surface plasmon resonance (SPR) binding affinity to TNIK; settings: saturated concentration of ATP (1 mM; 15-fold higher than KM)
Text: Surface plasmon resonance (SPR) was used to evaluate the binding affinity of the thiopeptide synthesized in Example 2 to TNIK.

[4] = Stability / reactivity towards glutathione (GSH), LC/MS; format: physicochemical; settings: for reactivity with GSH, in words: increasing concentration of glutathione (GSH)
[5] = Metabolic stability in human serum (LC/MS); format: in vitro ADME; settings: 37 °C
Description: The compounds were incubated with a human serum at 37 °C, and the amount of the residual test substance at various points in time was quantified by LC/MS with respect to an internal standard substance. […] Next, it was examined whether or not the half-lives of the compounds were affected by the reactivity of the Dha residue. The Dha residue may be conjugated with various serum thiols.
In addition, the metabolic stability of all of the 14 types of candidate thiopeptides was examined. The compound was incubated with the human serum at 37 °C, and the amount of the residual thiopeptide at various points in time was quantified by LC/MS with respect to the internal standard substance. The half-life of the thiopeptide for TLR10 was generally as long as 38.2 hours, and the thiopeptide was stable.

Chain of TNIK (Homo sapiens, UniProt Q9UKE5) (Q9UKE5 whole entry): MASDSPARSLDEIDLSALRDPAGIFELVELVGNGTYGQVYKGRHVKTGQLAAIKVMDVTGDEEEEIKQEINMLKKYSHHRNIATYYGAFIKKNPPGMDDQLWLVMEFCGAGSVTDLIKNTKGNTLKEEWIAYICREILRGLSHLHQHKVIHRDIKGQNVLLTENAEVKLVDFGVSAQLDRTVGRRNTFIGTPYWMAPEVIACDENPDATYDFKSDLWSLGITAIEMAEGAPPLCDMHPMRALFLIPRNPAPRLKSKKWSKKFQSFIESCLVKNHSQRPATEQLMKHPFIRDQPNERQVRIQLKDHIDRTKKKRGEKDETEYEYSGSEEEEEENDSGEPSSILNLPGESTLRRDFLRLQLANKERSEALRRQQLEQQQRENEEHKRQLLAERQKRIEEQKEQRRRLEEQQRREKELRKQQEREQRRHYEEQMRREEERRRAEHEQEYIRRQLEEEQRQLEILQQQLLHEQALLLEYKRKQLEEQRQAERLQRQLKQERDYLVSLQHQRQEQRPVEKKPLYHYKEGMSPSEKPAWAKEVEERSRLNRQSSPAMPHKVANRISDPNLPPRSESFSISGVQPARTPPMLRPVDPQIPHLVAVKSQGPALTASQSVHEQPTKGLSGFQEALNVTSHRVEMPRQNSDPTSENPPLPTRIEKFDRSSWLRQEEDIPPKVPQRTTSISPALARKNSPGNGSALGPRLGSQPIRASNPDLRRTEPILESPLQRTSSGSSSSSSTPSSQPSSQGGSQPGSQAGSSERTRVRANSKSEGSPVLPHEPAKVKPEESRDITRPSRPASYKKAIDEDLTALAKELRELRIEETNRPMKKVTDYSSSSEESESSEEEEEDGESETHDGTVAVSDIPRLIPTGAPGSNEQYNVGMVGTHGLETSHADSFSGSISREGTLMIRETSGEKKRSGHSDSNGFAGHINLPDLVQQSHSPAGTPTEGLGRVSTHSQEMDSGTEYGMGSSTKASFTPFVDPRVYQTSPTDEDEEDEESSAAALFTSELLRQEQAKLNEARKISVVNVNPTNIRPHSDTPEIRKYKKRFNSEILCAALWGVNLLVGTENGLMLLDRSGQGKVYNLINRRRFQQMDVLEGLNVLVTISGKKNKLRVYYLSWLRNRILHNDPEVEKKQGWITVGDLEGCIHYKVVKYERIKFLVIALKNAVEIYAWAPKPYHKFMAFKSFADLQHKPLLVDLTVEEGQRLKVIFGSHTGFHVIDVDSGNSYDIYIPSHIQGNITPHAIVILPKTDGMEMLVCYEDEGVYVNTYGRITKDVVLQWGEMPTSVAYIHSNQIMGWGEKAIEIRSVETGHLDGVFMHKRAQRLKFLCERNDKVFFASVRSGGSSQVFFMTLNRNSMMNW

For `C=C1NC(=O)[C@H](CCCCN)NC(=O)[C@H](Cc2ccc(O)cc2)NC(=O)[C@H]([C@@H](C)CC)NC(=O)[C@H](CCCNC(=N)N)NC(=O)[C@H](CCCNC(=N)N)NC(=O)[C@H](CCCCN)NC(=O)[C@H](Cc2ccccc2)NC(=O)[C@H](CC(C)C)NC(=O)[C@H](CCSC)NC(=O)[C@H](CO)NC(=O)[C@H](Cc2c[nH]c3ccccc23)NC(=O)c2ccc(-c3nc(C(=O)NCCC(=O)NCCOCCOCCCCCCCl)cs3)nc2-c2csc1n2` [IR1-ct] (WSMLFKRRIYK; linker N-C via X2), the “inhibition of NFkB reporter gene activity, in words” value [1] was “significant inhibition”.

For `C=C1NC(=O)/C(=C/C)NC(=O)[C@H](Cc2c[nH]c3ccccc23)NC(=O)[C@H](Cc2c[nH]cn2)NC(=O)[C@H](Cc2c[nH]c3ccccc23)NC(=O)[C@H]([C@@H](C)O)NC(=O)[C@H]([C@@H](C)CC)NC(=O)[C@H](Cc2ccccc2)NC(=O)[C@H](CCC(N)=O)NC(=O)[C@H](CCCNC(=N)N)NC(=O)[C@H](CCCCN)NC(=O)[C@H](CCCC)NC(=O)[C@H](CO)NC(=O)[C@H](Cc2c[nH]c3ccccc23)NC(=O)c2ccc(-c3nc(C(=O)NCCC(=O)NCCOCCOCCCCCCCl)cs3)nc2-c2csc1n2` [IR15-ct] (WS[Nle]KRQFITWHW[Dhb]; linker N-C via X2), the “inhibition of NFkB reporter gene activity, in words” value [1] was “significant inhibition”.

In the case of `C=C1NC(=O)/C(=C/C)NC(=O)[C@H](Cc2c[nH]c3ccccc23)NC(=O)[C@H](Cc2c[nH]cn2)NC(=O)[C@H](Cc2c[nH]c3ccccc23)NC(=O)[C@H]([C@@H](C)O)NC(=O)[C@H]([C@@H](C)CC)NC(=O)[C@H](Cc2ccccc2)NC(=O)[C@H](CCC(N)=O)NC(=O)[C@H](CCCNC(=N)N)NC(=O)[C@H](CCCCN)NC(=O)[C@H](CCCC)NC(=O)[C@H](CO)NC(=O)[C@H](Cc2c[nH]c3ccccc23)NC(=O)c2ccc(-c3nc(C(=O)OC)cs3)nc2-c2csc1n2` [IR15] (WS[Nle]KRQFITWHW[Dhb]; linker N-C via X1), the “uptake into cytoplasm of HEK293T cells, in words” value (HEK293T cells) is reported as “taken up into the cytoplasm of HEK293T cells much more efficiently than Tat” and the “uptake into HEK293T cells relative to Tat” value (HEK293T cells; in the presence of serum) is reported as 2 fold.

With `OC1CCC(Oc2cccc3cnc(Nc4ccc5nc[nH]c5c4)nc23)CC1` (centres unmarked) [NCB0846, reference compound] the “overall expression of TNIK, mRNA level” value (TNIK mRNA) was “down-regulated”, the “overall expression of TNIK, protein level” value (TNIK [2]) was “down-regulated” and the “level of TNIK pSer764” value (TNIK pSer764) was “the same”.

In the case of `C=C1NC(=O)C(=C)NC(=O)[C@H](CCCCN)NC(=O)[C@H](CC(C)C)NC(=O)[C@H]([C@@H](C)O)NC(=O)[C@H](CCCCN)NC(=O)[C@H](Cc2ccc(O)cc2)NC(=O)[C@H]([C@@H](C)CC)NC(=O)[C@H](Cc2ccccc2)NC(=O)CNC(=O)[C@H](Cc2c[nH]c3ccccc23)NC(=O)c2ccc(-c3nc(C(=O)NCCC(=O)NCCOCCOCCCCCCCl)cs3)nc2-c2csc(n2)C(=C)NC(=O)CNC1=O` [TP1-ct] (WGFIYKTLK[Dha][Dha]G; linker N-C via X2), the “cytoplasmic uptake (CAPA), in words” value (HEK293H cells) is reported as “taken up into HEK293H cells at a concentration of a single-digit μM”.

With `C=C1NC(=O)C(=C)NC(=O)[C@H](CCCCN)NC(=O)[C@H](CC(C)C)NC(=O)[C@H]([C@@H](C)O)NC(=O)[C@H](CCCCN)NC(=O)[C@H](Cc2ccc(O)cc2)NC(=O)[C@H]([C@@H](C)CC)NC(=O)[C@H](Cc2ccccc2)NC(=O)CNC(=O)[C@H](Cc2c[nH]c3ccccc23)NC(=O)c2ccc(-c3nc(C(=O)OC)cs3)nc2-c2csc(n2)C(=C)NC(=O)CNC1=O` [TP1] (WGFIYKTLK[Dha][Dha]G; linker N-C via X1) the “binding to TNIK in the presence of ATP” value (TNIK [3]) was “bonded to TNIK in the presence of the saturated concentration of ATP”, the “cytoplasmic uptake (CAPA), in words” value (HEK293H cells) was “efficient cytoplasmic translocation” and the “reactivity with GSH, in words” value [4] was “Dha11 and Dha12 in TP1 react with GSH”.

In the case of `C=C1NC(=O)[C@H](CO)NC(=O)[C@H](CSCC(N)=O)NC(=O)CNC(=O)[C@H](Cc2ccc(O)cc2)NC(=O)[C@H](C)NC(=O)[C@H](CO)NC(=O)[C@H](CC(=O)O)NC(=O)CNC(=O)[C@H](CC(C)C)NC(=O)[C@H](Cc2c[nH]c3ccccc23)NC(=O)[C@H](Cc2c[nH]c3ccccc23)NC(=O)c2ccc(-c3nc(C(=O)OC)cs3)nc2-c2csc1n2` [TP4] (WWLGDSAYGC(Cam)S; linker N-C via X1), the “half-life (τ1/2) in human serum” value [5] is reported as 88 h and the “stability in human serum, in words” value [5] is reported as “good stability”.

For `C=C1NC(=O)CNC(=O)[C@H](CC(N)=O)NC(=O)[C@H](CC(C)C)NC(=O)CNC(=O)[C@H](CCCCN)NC(=O)[C@H](C)NC(=O)[C@H]([C@@H](C)CC)NC(=O)[C@H](CO)NC(=O)[C@H](Cc2c[nH]c3ccccc23)NC(=O)[C@H](C)NC(=O)[C@H](Cc2c[nH]c3ccccc23)NC(=O)c2ccc(-c3nc(C(=O)OC)cs3)nc2-c2csc1n2` [TP8] (WAWSIAKGLNG; linker N-C via X1), the “half-life (τ1/2) in human serum” value [5] was 14 h, the “stability in human serum, in words” value [5] was “good stability” and the “binding to TNIK in the presence of ATP” value (TNIK [3]) was “bonded to TNIK in the presence of the saturated concentration of ATP”.

In the case of `C=C1NC(=O)CNC(=O)[C@H](CCCNC(=N)N)NC(=O)[C@H](Cc2ccc(O)cc2)NC(=O)[C@H](CC(C)C)NC(=O)[C@H](CO)NC(=O)[C@H](CCCCN)NC(=O)[C@H](CC(N)=O)NC(=O)CNC(=O)[C@H](Cc2ccccc2)NC(=O)[C@H](Cc2c[nH]c3ccccc23)NC(=O)[C@H](Cc2c[nH]c3ccccc23)NC(=O)c2ccc(-c3nc(C(=O)NCCC(=O)NCCOCCOCCCCCCCl)cs3)nc2-c2csc1n2` [TP14-ct] (WWFGNKSLYRG; linker N-C via X2), the “cytoplasmic uptake (CAPA), in words” value (HEK293H cells) is reported as “taken up into HEK293H cells at a concentration of a single-digit μM”.

For `C=C1NC(=O)CNC(=O)[C@H](CCCNC(=N)N)NC(=O)[C@H](Cc2ccc(O)cc2)NC(=O)[C@H](CC(C)C)NC(=O)[C@H](CO)NC(=O)[C@H](CCCCN)NC(=O)[C@H](CC(N)=O)NC(=O)CNC(=O)[C@H](Cc2ccccc2)NC(=O)[C@H](Cc2c[nH]c3ccccc23)NC(=O)[C@H](Cc2c[nH]c3ccccc23)NC(=O)c2ccc(-c3nc(C(=O)OC)cs3)nc2-c2csc1n2` [TP14] (WWFGNKSLYRG; linker N-C via X1), the “stability in human serum, in words” value [5] was “short half-life”, the “binding to TNIK in the presence of ATP” value (TNIK [3]) was “bonded to TNIK in the presence of the saturated concentration of ATP” and the “cytoplasmic uptake (CAPA), in words” value (HEK293H cells) was “efficient cytoplasmic translocation”. For the same compound, the “residual amount in the presence of GSH” value ([4]; 10 mM GSH, after 24 hours) was greater than 95% and the “reactivity with GSH, in words” value [4] was “stable”.

In the case of `C=C1NC(=O)c2csc(n2)[C@H]([C@@H](C)O)NC(=O)[C@H](C)NC(=O)[C@H]([C@@H](C)CC)NC(=O)[C@H](CCCNC(=N)N)NC(=O)CNC(=O)[C@H](CCCNC(=N)N)NC(=O)[C@H]([C@@H](C)O)NC(=O)[C@H](CCCNC(=N)N)NC(=O)[C@H]([C@@H](C)CC)NC(=O)[C@H]([C@@H](C)O)NC(=O)[C@H](Cc2c[nH]c3ccccc23)NC(=O)c2ccc(-c3nc(C(=O)NCCC(=O)NCCOCCOCCCCCCCl)cs3)nc2-c2csc1n2` [TP15-ct], the “cytoplasmic uptake (CAPA), in words” value (HEK293H cells) is reported as “taken up into HEK293H cells at a concentration of a single-digit μM”.
